Values quoted from earlier work as cited in patent publication US12410178B2, “Small cationic ortho-5,15-di-heteroaryl-porphyrin derivatives and their applications in photoinactivation of microorganisms” (UNIVERSIDADE DE COIMBRA, priority 2019, dated 2025).

What was measured:
[1] = system: human HeLa cells; conditions: phototoxicity in vitro; read-out: concentration at which 50% of human HeLa cells are killed; cited from earlier work
[2] = system: flies; conditions: in vivo; cited from earlier work

Row | Structure (SMILES) | IC50 [1] [nM] | phototoxicity towards flies [2]
1 | CCn1cc[n+](CC)c1C1=c2ccc3[n]2[Zn@]24[n]5c(ccc5C(c5ccccc5)=C5C=CC(=[N+]52)C=3)C=C2C=CC1=[N+]24 [Formula (III), zinc(II) phenylporphinate] | 1200 | –
2 | C[n+]1ccc(-c2c3nc(c(-c4cc[n+](C)cc4)c4ccc([nH]4)c(-c4ccccc4)c4nc(c(-c5ccccc5)c5ccc2[nH]5)C=C4)C=C3)cc1 [Formula (IV), meso-(di-cis[4-N-methyl-pyridyl]cis-diphenyl-porphyrin)] | – | phototoxic towards flies
